Results reported in patent US20250311727A1, “SUBSTITUTED 2-AMINOAZINES AND SALTS THEREOF, AND USE THEREOF AS HERBICIDAL ACTIVE SUBSTANCES” (BAYER AKTIENGESELLSCHAFT, priority 2022, published 2025).

How the values were obtained:
Type in all cases: in vivo
Abutilon theophrasti [1] = test: Post-emergence herbicidal efficacy at 320 g/ha, ABUTH; settings: rated visually after about 3 weeks vs untreated controls, 100% = plants have died
Excerpt: (§1) Unwanted plants/weeds: • ABUTH: Abutilon theophrasti • ALOMY: Alopecurus myosuroides • AMARE: Amaranthus retroflexus • DIGSA: Digitaria sanguinalis • ECHCG: Echinochloa crus-galli • KCHSC: Kochia scoparia • LOLRI: Lolium rigidum • MATIN: Matricaria inodora • POAAN: Poa annua • POLCO: Polygonum convolvulus • SETVI: Setaria viridis • STEME: Stellaria media • VERPE: Veronica persica • VIOTR: Viola tricolor A. Post-Emergence Herbicidal Efficacy at 320 g/ha
(§2) Seeds of mono- and dicotyledonous weed plants were placed in plastic pots in sandy loam soil (doubly sown with in each case one species of mono- or dicotyledonous weed plants per pot), covered with soil and cultivated in a greenhouse under controlled growth conditions. 2 to 3 weeks after sowing, the test plants were treated at the one-leaf stage. The compounds of the invention, formulated in the form of wettable powders (WP) or as emulsion concentrates (EC), were applied to the green parts of the plants as aqueous suspension or emulsion with addition of 0.5% additive at a water application rate equivalent to 600 litres per hectare. After the test plants had been kept in the greenhouse under optimum growth conditions for about 3 weeks, the activity of the preparations was rated visually in comparison to untreated controls.
(§3) For example, 100% activity=the plants have died, 0% activity=like control plants.
(§4) Tables A1 to A10 below show the effects of selected compounds of the general formula (I) according to Table 1 on various harmful plants and at an application rate corresponding to 320 g/ha, which were obtained by the trial procedure specified above.

Amaranthus retroflexus [2] = test: Post-emergence herbicidal efficacy at 320 g/ha, AMARE; settings: rated visually after about 3 weeks vs untreated controls, 100% = plants have died
Excerpt: as §1, §2, §3, §4

Digitaria sanguinalis [3] = test: Post-emergence herbicidal efficacy at 320 g/ha, DIGSA; settings: rated visually after about 3 weeks vs untreated controls, 100% = plants have died
Excerpt: as §1, §2, §3, §4

Echinochloa crus-galli [4] = test: Post-emergence herbicidal efficacy at 320 g/ha, ECHCG; settings: rated visually after about 3 weeks vs untreated controls, 100% = plants have died
Excerpt: as §1, §2, §3, §4

Kochia scoparia [5] = test: Post-emergence herbicidal efficacy at 320 g/ha, KCHSC; settings: rated visually after about 3 weeks vs untreated controls, 100% = plants have died
Excerpt: as §1, §2, §3, §4

Poa annua [6] = test: Post-emergence herbicidal efficacy at 320 g/ha, POAAN; settings: rated visually after about 3 weeks vs untreated controls, 100% = plants have died
Excerpt: as §1, §2, §3, §4

Setaria viridis [7] = test: Post-emergence herbicidal efficacy at 320 g/ha, SETVI; settings: rated visually after about 3 weeks vs untreated controls, 100% = plants have died
Excerpt: as §1, §2, §3, §4

Stellaria media [8] = test: Post-emergence herbicidal efficacy at 320 g/ha, STEME; settings: rated visually after about 3 weeks vs untreated controls, 100% = plants have died
Excerpt: as §1, §2, §3, §4

Veronica persica [9] = test: Post-emergence herbicidal efficacy at 320 g/ha, VERPE; settings: rated visually after about 3 weeks vs untreated controls, 100% = plants have died
Excerpt: as §1, §2, §3, §4

Amaranthus retroflexus [10] = test: Post-emergence herbicidal efficacy at 80 g/ha, AMARE; settings: rated visually after about 3 weeks vs untreated controls, 100% = plants have died
Excerpt: as §1
(§5) Seeds of monocotyledonous and dicotyledonous weeds and crop plants were placed in sandy loam in plastic or organic planting pots, covered with soil and cultivated in a greenhouse under controlled growth conditions. 2 to 3 weeks after sowing, the test plants were treated at the one-leaf stage. The compounds of the invention, formulated in the form of wettable powders (WP) or as emulsion concentrates (EC), were then sprayed onto the green parts of the plants as aqueous suspension or emulsion with addition of 0.5% additive at a water application rate of 600 l/ha (converted). After the test plants had been kept in the greenhouse under optimum growth conditions for about 3 weeks, the activity of the preparations was rated visually in comparison to untreated controls. For example, 100% activity=the plants have died, 0% activity=like control plants.
(§6) Tables B1 to B11 below show the effects of selected compounds of the general formula (I) according to Table 1 on various harmful plants and an application rate corresponding to 80 g/ha, which were obtained by the experimental procedure mentioned above.

Kochia scoparia [11] = test: Post-emergence herbicidal efficacy at 80 g/ha, KCHSC; settings: rated visually after about 3 weeks vs untreated controls, 100% = plants have died
Excerpt: as §1, §5, §6

Veronica persica [12] = test: Post-emergence herbicidal efficacy at 80 g/ha, VERPE; settings: rated visually after about 3 weeks vs untreated controls, 100% = plants have died
Excerpt: as §1, §5, §6

Viola tricolor [13] = test: Post-emergence herbicidal efficacy at 80 g/ha, VIOTR; settings: rated visually after about 3 weeks vs untreated controls, 100% = plants have died
Excerpt: as §1, §5, §6

Abutilon theophrasti [14] = test: Pre-emergence herbicide efficacy at 320 g/ha, ABUTH; settings: scored visually after about 3 weeks vs untreated controls, 100% = plants have died
Excerpt: as §1
(§7) Seeds of mono- and dicotyledonous weed plants were placed in plastic pots in sandy loam soil (doubly sown with one species each of mono- or dicotyledonous weed plants per pot) and covered with soil. The compounds of the invention, formulated in the form of wettable powders (WP) or as emulsion concentrates (EC), were then applied to the surface of the covering soil as aqueous suspension or emulsion with addition of 0.5% additive at a water application rate of 600 litres per hectare (converted). After the treatment, the pots were placed in a greenhouse and kept under good growth conditions for the test plants. After about 3 weeks, the efficacy of the preparations was scored visually in comparison with untreated controls as percentages.
as §3
(§8) Tables C1 to C12 below show the effects of selected compounds of the general formula (I) according to Table 1 on various harmful plants and at an application rate corresponding to 320 g/ha, which were obtained by the trial procedure specified above.

Amaranthus retroflexus [15] = test: Pre-emergence herbicide efficacy at 320 g/ha, AMARE; settings: scored visually after about 3 weeks vs untreated controls, 100% = plants have died
Excerpt: as §1, §7, §3, §8

Digitaria sanguinalis [16] = test: Pre-emergence herbicide efficacy at 320 g/ha, DIGSA; settings: scored visually after about 3 weeks vs untreated controls, 100% = plants have died
Excerpt: as §1, §7, §3, §8

Echinochloa crus-galli [17] = test: Pre-emergence herbicide efficacy at 320 g/ha, ECHCG; settings: scored visually after about 3 weeks vs untreated controls, 100% = plants have died
Excerpt: as §1, §7, §3, §8

Kochia scoparia [18] = test: Pre-emergence herbicide efficacy at 320 g/ha, KCHSC; settings: scored visually after about 3 weeks vs untreated controls, 100% = plants have died
Excerpt: as §1, §7, §3, §8

Matricaria inodora [19] = test: Pre-emergence herbicide efficacy at 320 g/ha, MATIN; settings: scored visually after about 3 weeks vs untreated controls, 100% = plants have died
Excerpt: as §1, §7, §3, §8

Poa annua [20] = test: Pre-emergence herbicide efficacy at 320 g/ha, POAAN; settings: scored visually after about 3 weeks vs untreated controls, 100% = plants have died
Excerpt: as §1, §7, §3, §8

Setaria viridis [21] = test: Pre-emergence herbicide efficacy at 320 g/ha, SETVI; settings: scored visually after about 3 weeks vs untreated controls, 100% = plants have died
Excerpt: as §1, §7, §3, §8

Stellaria media [22] = test: Pre-emergence herbicide efficacy at 320 g/ha, STEME; settings: scored visually after about 3 weeks vs untreated controls, 100% = plants have died
Excerpt: as §1, §7, §3, §8

Veronica persica [23] = test: Pre-emergence herbicide efficacy at 320 g/ha, VERPE; settings: scored visually after about 3 weeks vs untreated controls, 100% = plants have died
Excerpt: as §1, §7, §3, §8

Abutilon theophrasti [24] = test: Pre-emergence herbicide efficacy at 80 g/ha, ABUTH; settings: scored visually after about 3 weeks vs untreated controls, 100% = plants have died
Excerpt: as §1
(§9) Seeds of monocotyledonous and dicotyledonous weed plants and crop plants were placed in plastic or organic planting pots and covered with soil. The compounds of the invention, formulated in the form of wettable powders (WP) or as emulsion concentrates (EC), were then applied to the surface of the covering soil as aqueous suspension or emulsion with addition of 0.5% additive at a water application rate equivalent to 600 l/ha. After the treatment, the pots were placed in a greenhouse and kept under good growth conditions for the test plants. After about 3 weeks, the efficacy of the preparations was scored visually in comparison with untreated controls as percentages. For example, 100% activity=the plants have died, 0% activity=like control plants.
(§10) Tables D1 to D12 below show the effects of selected compounds of the general formula (I) according to Table 1 on various harmful plants and an application rate corresponding to 80 g/ha, which were obtained by the experimental procedure mentioned above.

Amaranthus retroflexus [25] = test: Pre-emergence herbicide efficacy at 80 g/ha, AMARE; settings: scored visually after about 3 weeks vs untreated controls, 100% = plants have died
Excerpt: as §1, §9, §10

Digitaria sanguinalis [26] = test: Pre-emergence herbicide efficacy at 80 g/ha, DIGSA; settings: scored visually after about 3 weeks vs untreated controls, 100% = plants have died
Excerpt: as §1, §9, §10

Echinochloa crus-galli [27] = test: Pre-emergence herbicide efficacy at 80 g/ha, ECHCG; settings: scored visually after about 3 weeks vs untreated controls, 100% = plants have died
Excerpt: as §1, §9, §10

Kochia scoparia [28] = test: Pre-emergence herbicide efficacy at 80 g/ha, KCHSC; settings: scored visually after about 3 weeks vs untreated controls, 100% = plants have died
Excerpt: as §1, §9, §10

Matricaria inodora [29] = test: Pre-emergence herbicide efficacy at 80 g/ha, MATIN; settings: scored visually after about 3 weeks vs untreated controls, 100% = plants have died
Excerpt: as §1, §9, §10

Polygonum convolvulus = test: Pre-emergence herbicide efficacy at 80 g/ha, POLCO; settings: scored visually after about 3 weeks vs untreated controls, 100% = plants have died
Excerpt: as §1, §9, §10

Setaria viridis [30] = test: Pre-emergence herbicide efficacy at 80 g/ha, SETVI
Excerpt: as §1, §9, §10

Veronica persica [31] = test: Pre-emergence herbicide efficacy at 80 g/ha, VERPE
Excerpt: as §1, §9, §10

Viola tricolor [32] = test: Pre-emergence herbicide efficacy at 80 g/ha, VIOTR
Excerpt: as §1, §9, §10

Cc1cnn(-c2c(C#N)cccc2Nc2ncc(Cl)cn2)c1 [Example 1-66]
Post-emergence efficacy at 320 g/ha against ABUTH in % (Abutilon theophrasti [1]): 100%
Post-emergence efficacy at 320 g/ha against AMARE in % (Amaranthus retroflexus [2]): 100%
Post-emergence efficacy at 320 g/ha against DIGSA in % (Digitaria sanguinalis [3]): 90%
Post-emergence efficacy at 320 g/ha against ECHCG in % (Echinochloa crus-galli [4]): 100%
Post-emergence efficacy at 320 g/ha against KCHSC in % (Kochia scoparia [5]): 100%
Post-emergence efficacy at 320 g/ha against POAAN in % (Poa annua [6]): 100%
Post-emergence efficacy at 320 g/ha against SETVI in % (Setaria viridis [7]): 90%
Post-emergence efficacy at 320 g/ha against STEME in % (Stellaria media [8]): 100%
Post-emergence efficacy at 320 g/ha against VERPE in % (Veronica persica [9]): 100%
Post-emergence efficacy at 80 g/ha against AMARE in % (Amaranthus retroflexus [10]): 100%
Post-emergence efficacy at 80 g/ha against KCHSC in % (Kochia scoparia [11]): 80%
Post-emergence efficacy at 80 g/ha against VERPE in % (Veronica persica [12]): 90%
Post-emergence efficacy at 80 g/ha against VIOTR in % (Viola tricolor [13]): 90%
Pre-emergence efficacy at 320 g/ha against ABUTH in % (Abutilon theophrasti [14]): 100%
Pre-emergence efficacy at 320 g/ha against AMARE in % (Amaranthus retroflexus [15]): 100%
Pre-emergence efficacy at 320 g/ha against DIGSA in % (Digitaria sanguinalis [16]): 100%
Pre-emergence efficacy at 320 g/ha against ECHCG in % (Echinochloa crus-galli [17]): 100%
Pre-emergence efficacy at 320 g/ha against KCHSC in % (Kochia scoparia [18]): 100%
Pre-emergence efficacy at 320 g/ha against MATIN in % (Matricaria inodora [19]): 90%
Pre-emergence efficacy at 320 g/ha against POAAN in % (Poa annua [20]): 100%
Pre-emergence efficacy at 320 g/ha against SETVI in % (Setaria viridis [21]): 100%
Pre-emergence efficacy at 320 g/ha against STEME in % (Stellaria media [22]): 100%
Pre-emergence efficacy at 320 g/ha against VERPE in % (Veronica persica [23]): 100%
Pre-emergence efficacy at 80 g/ha against ABUTH in % (Abutilon theophrasti [24]): 80%
Pre-emergence efficacy at 80 g/ha against AMARE in % (Amaranthus retroflexus [25]): 100%
Pre-emergence efficacy at 80 g/ha against DIGSA in % (Digitaria sanguinalis [26]): 100%
Pre-emergence efficacy at 80 g/ha against ECHCG in % (Echinochloa crus-galli [27]): 90%
Pre-emergence efficacy at 80 g/ha against KCHSC in % (Kochia scoparia [28]): 100%
Pre-emergence efficacy at 80 g/ha against MATIN in % (Matricaria inodora [29]): 100%
Pre-emergence efficacy at 80 g/ha against POLCO in % (Polygonum convolvulus): 80%
Pre-emergence efficacy against SETVI (Setaria viridis [30]): 90%
Pre-emergence efficacy against VERPE (Veronica persica [31]): 100%
Pre-emergence efficacy against VIOTR (Viola tricolor [32]): 100%

COCc1cnn(-c2c(C#N)cccc2Nc2ncc(Cl)cn2)c1 [Example 1-68]
Post-emergence efficacy at 320 g/ha against ABUTH in % (Abutilon theophrasti [1]): 90%
Post-emergence efficacy at 320 g/ha against AMARE in % (Amaranthus retroflexus [2]): 100%
Post-emergence efficacy at 320 g/ha against KCHSC in % (Kochia scoparia [5]): 100%
Post-emergence efficacy at 320 g/ha against SETVI in % (Setaria viridis [7]): 90%
Post-emergence efficacy at 320 g/ha against STEME in % (Stellaria media [8]): 100%
Post-emergence efficacy at 320 g/ha against VERPE in % (Veronica persica [9]): 100%
Pre-emergence efficacy at 320 g/ha against AMARE in % (Amaranthus retroflexus [15]): 100%
Pre-emergence efficacy at 320 g/ha against DIGSA in % (Digitaria sanguinalis [16]): 100%
Pre-emergence efficacy at 320 g/ha against KCHSC in % (Kochia scoparia [18]): 100%
Pre-emergence efficacy at 320 g/ha against VERPE in % (Veronica persica [23]): 90%
